# Measured values as given in the supplement of paper PMC10307832.
# How the values were obtained:
# Assay in all cases: relative viability (nuclei count vs DMSO), 5 days (fraction); higher = more cells survive
# A549 = test system: A549
# How it was run: (§1)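 Cells from lung cancer lines were seeded into 1536-well plates and, one day later, dosed by pin tool. Treatments were either a single drug or a fixed dose of an anchor drug with five library-drug doses (not always all listed) in √10 steps. After 5 days, nuclei were stained in a one-step fixation (final 0.05% Triton X-100, 1% formaldehyde, 1 ug/ml Hoechst) and counted on 4× images, and relative viability is the treated-to-vehicle nuclei ratio, as the median of duplicate plates.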
# ABC-1 = test system: ABC-1
# How it was run: as §1
# Calu-6 = test system: Calu-6
# How it was run: as §1
# EBC-1 = test system: EBC-1
# How it was run: as §1
# IA-LM = test system: IA-LM
# How it was run: as §1
# LK-2 = test system: LK-2
# How it was run: as §1
# LOU-NH91 = test system: LOU-NH91
# How it was run: as §1
# NCI-H1299 = test system: NCI-H1299
# How it was run: as §1
# NCI-H1648 = test system: NCI-H1648
# How it was run: as §1
# NCI-H1650 = test system: NCI-H1650
# How it was run: as §1
# NCI-H1666 = test system: NCI-H1666
# How it was run: as §1
# NCI-H1703 = test system: NCI-H1703
# How it was run: as §1
# NCI-H1755 = test system: NCI-H1755
# How it was run: as §1
# NCI-H2228 = test system: NCI-H2228
# How it was run: as §1
# NCI-H1623 = test system: NCI-H1623
# How it was run: as §1
smiles,measurement,setting,value
COCC1(CO)C(=O)C2CCN1CC2 (stereo unspecified) [PRIMA-1MET] + O=C(c1cc(Cc2n[nH]c(=O)c3ccccc23)ccc1F)N1CCN(C(=O)C2CC2)CC1 [Olaparib] (partner 8 µM),relative viability,A549; first compound 0.2 µM,0.528
same,relative viability,A549; first compound 0.6325 µM,0.365
same,relative viability,A549; first compound 2 µM,0.379
same,relative viability,A549; first compound 6.325 µM,0.371
same,relative viability,A549; first compound 20 µM,0.266
same,relative viability,ABC-1; first compound 0.2 µM,0.993
same,relative viability,ABC-1; first compound 2 µM,0.664
same,relative viability,ABC-1; first compound 6.325 µM,0.662
same,relative viability,ABC-1; first compound 20 µM,0.616
same,relative viability,Calu-6; first compound 0.2 µM,0.547
same,relative viability,Calu-6; first compound 0.6325 µM,0.588
same,relative viability,Calu-6; first compound 2 µM,0.594
same,relative viability,Calu-6; first compound 6.325 µM,0.516
same,relative viability,Calu-6; first compound 20 µM,0.443
same,relative viability,EBC-1; first compound 0.2 µM,0.692
same,relative viability,EBC-1; first compound 0.6325 µM,0.712
same,relative viability,EBC-1; first compound 2 µM,0.701
same,relative viability,EBC-1; first compound 6.325 µM,0.828
same,relative viability,EBC-1; first compound 20 µM,0.7
same,relative viability,IA-LM; first compound 0.2 µM,0.867
same,relative viability,IA-LM; first compound 0.6325 µM,0.676
same,relative viability,IA-LM; first compound 2 µM,0.905
same,relative viability,IA-LM; first compound 6.325 µM,0.819
same,relative viability,IA-LM; first compound 20 µM,0.788
same,relative viability,LK-2; first compound 0.2 µM,0.823
same,relative viability,LK-2; first compound 0.6325 µM,0.632
same,relative viability,LK-2; first compound 2 µM,0.513
same,relative viability,LK-2; first compound 6.325 µM,0.423
same,relative viability,LK-2; first compound 20 µM,0.0842
same,relative viability,LOU-NH91; first compound 0.2 µM,1.02
same,relative viability,LOU-NH91; first compound 0.6325 µM,0.911
same,relative viability,LOU-NH91; first compound 2 µM,0.866
same,relative viability,LOU-NH91; first compound 6.325 µM,0.978
same,relative viability,LOU-NH91; first compound 20 µM,0.65
same,relative viability,NCI-H1299; first compound 0.2 µM,0.984
same,relative viability,NCI-H1299; first compound 0.6325 µM,0.921
same,relative viability,NCI-H1299; first compound 2 µM,0.99
same,relative viability,NCI-H1299; first compound 6.325 µM,0.959
same,relative viability,NCI-H1299; first compound 20 µM,0.984
same,relative viability,NCI-H1648; first compound 0.2 µM,0.747
same,relative viability,NCI-H1648; first compound 2 µM,1.43
same,relative viability,NCI-H1648; first compound 20 µM,0.912
same,relative viability,NCI-H1650; first compound 0.2 µM,0.75
same,relative viability,NCI-H1650; first compound 0.6325 µM,0.744
same,relative viability,NCI-H1650; first compound 2 µM,0.75
same,relative viability,NCI-H1650; first compound 6.325 µM,0.709
same,relative viability,NCI-H1650; first compound 20 µM,0.585
same,relative viability,NCI-H1666; first compound 0.2 µM,0.773
same,relative viability,NCI-H1666; first compound 0.6325 µM,0.753
same,relative viability,NCI-H1666; first compound 2 µM,0.801
same,relative viability,NCI-H1666; first compound 6.325 µM,0.735
same,relative viability,NCI-H1666; first compound 20 µM,0.739
same,relative viability,NCI-H1703; first compound 0.2 µM,0.422
same,relative viability,NCI-H1703; first compound 6.325 µM,0.769
same,relative viability,NCI-H1703; first compound 20 µM,0.0733
same,relative viability,NCI-H1755; first compound 0.2 µM,0.867
same,relative viability,NCI-H1755; first compound 0.6325 µM,0.904
same,relative viability,NCI-H1755; first compound 2 µM,0.782
same,relative viability,NCI-H1755; first compound 6.325 µM,0.805
same,relative viability,NCI-H1755; first compound 20 µM,0.817
same,relative viability,NCI-H2228; first compound 0.2 µM,0.768
same,relative viability,NCI-H2228; first compound 0.6325 µM,0.522
same,relative viability,NCI-H2228; first compound 2 µM,0.762
same,relative viability,NCI-H2228; first compound 6.325 µM,0.577
same,relative viability,NCI-H2228; first compound 20 µM,0.0565
COCC1(CO)C(=O)C2CCN1CC2 (stereo unspecified) [PRIMA-1MET] + CCNC(=O)c1noc(-c2cc(C(C)C)c(O)cc2O)c1-c1ccc(CN2CCOCC2)cc1 [Luminespib] (partner 0.01 µM),relative viability,ABC-1; first compound 0.2 µM,0.534
same,relative viability,ABC-1; first compound 0.6325 µM,0.375
same,relative viability,ABC-1; first compound 2 µM,0.393
same,relative viability,ABC-1; first compound 6.325 µM,0.607
same,relative viability,ABC-1; first compound 20 µM,0.171
same,relative viability,LK-2; first compound 0.2 µM,0.152
same,relative viability,LK-2; first compound 0.6325 µM,0.188
same,relative viability,LK-2; first compound 2 µM,0.158
same,relative viability,LK-2; first compound 6.325 µM,0.167
same,relative viability,LK-2; first compound 20 µM,0.121
same,relative viability,LOU-NH91; first compound 0.2 µM,0.347
same,relative viability,LOU-NH91; first compound 0.6325 µM,0.353
same,relative viability,LOU-NH91; first compound 2 µM,0.365
same,relative viability,LOU-NH91; first compound 6.325 µM,0.42
same,relative viability,LOU-NH91; first compound 20 µM,0.265
same,relative viability,NCI-H1623; first compound 0.2 µM,0.592
same,relative viability,NCI-H1623; first compound 0.6325 µM,0.37
same,relative viability,NCI-H1623; first compound 2 µM,0.446
same,relative viability,NCI-H1623; first compound 6.325 µM,0.426
same,relative viability,NCI-H1623; first compound 20 µM,0.247
same,relative viability,NCI-H1650; first compound 0.2 µM,0.228
same,relative viability,NCI-H1650; first compound 0.6325 µM,0.212
same,relative viability,NCI-H1650; first compound 2 µM,0.185
same,relative viability,NCI-H1650; first compound 6.325 µM,0.193
same,relative viability,NCI-H1650; first compound 20 µM,0.123
same,relative viability,NCI-H1666; first compound 0.2 µM,1.02
same,relative viability,NCI-H1666; first compound 0.6325 µM,0.714
same,relative viability,NCI-H1666; first compound 2 µM,0.906
same,relative viability,NCI-H1666; first compound 6.325 µM,1.03
same,relative viability,NCI-H1666; first compound 20 µM,0.85
same,relative viability,NCI-H1755; first compound 0.2 µM,0.527
same,relative viability,NCI-H1755; first compound 0.6325 µM,0.332
same,relative viability,NCI-H1755; first compound 2 µM,0.404
same,relative viability,NCI-H1755; first compound 6.325 µM,0.51
same,relative viability,NCI-H1755; first compound 20 µM,0.454
same,relative viability,NCI-H2228; first compound 0.2 µM,0.212
same,relative viability,NCI-H2228; first compound 0.6325 µM,0.139
same,relative viability,NCI-H2228; first compound 2 µM,0.0997
same,relative viability,NCI-H2228; first compound 6.325 µM,0.192
same,relative viability,NCI-H2228; first compound 20 µM,0.056
COCC1(CO)C(=O)C2CCN1CC2 (stereo unspecified) [PRIMA-1MET] + Nc1ncn([C@H]2C[C@H](O)[C@@H](CO)O2)c(=O)n1 [Decitabine] (partner 2 µM),relative viability,A549; first compound 0.2 µM,0.284
same,relative viability,A549; first compound 2 µM,0.253
same,relative viability,A549; first compound 6.325 µM,0.25
same,relative viability,A549; first compound 20 µM,0.237
same,relative viability,ABC-1; first compound 0.2 µM,1.07
same,relative viability,ABC-1; first compound 2 µM,0.983
same,relative viability,ABC-1; first compound 6.325 µM,1.36
same,relative viability,ABC-1; first compound 20 µM,0.552
same,relative viability,LK-2; first compound 0.2 µM,0.262
same,relative viability,LK-2; first compound 0.6325 µM,0.158
same,relative viability,LK-2; first compound 2 µM,0.247
same,relative viability,LK-2; first compound 6.325 µM,0.182
same,relative viability,LK-2; first compound 20 µM,0.0846
same,relative viability,LOU-NH91; first compound 0.2 µM,0.89
same,relative viability,LOU-NH91; first compound 0.6325 µM,0.794
same,relative viability,LOU-NH91; first compound 2 µM,0.806
same,relative viability,LOU-NH91; first compound 6.325 µM,0.828
same,relative viability,LOU-NH91; first compound 20 µM,0.613
same,relative viability,NCI-H1648; first compound 0.2 µM,0.433
same,relative viability,NCI-H1648; first compound 2 µM,0.451
same,relative viability,NCI-H1648; first compound 20 µM,0.475
same,relative viability,NCI-H1650; first compound 0.2 µM,0.485
same,relative viability,NCI-H1650; first compound 0.6325 µM,0.314
same,relative viability,NCI-H1650; first compound 2 µM,0.314
same,relative viability,NCI-H1650; first compound 6.325 µM,0.382
same,relative viability,NCI-H1650; first compound 20 µM,0.279
same,relative viability,NCI-H1666; first compound 0.2 µM,0.637
same,relative viability,NCI-H1666; first compound 0.6325 µM,0.492
same,relative viability,NCI-H1666; first compound 2 µM,0.645
same,relative viability,NCI-H1666; first compound 6.325 µM,0.724
same,relative viability,NCI-H1666; first compound 20 µM,0.756
same,relative viability,NCI-H1755; first compound 0.2 µM,0.785
same,relative viability,NCI-H1755; first compound 0.6325 µM,0.583
same,relative viability,NCI-H1755; first compound 2 µM,0.72
same,relative viability,NCI-H1755; first compound 6.325 µM,0.723
same,relative viability,NCI-H1755; first compound 20 µM,0.772
